In patent publication US8093272B2 (priority 2004, dated 2012):

Columns and labels:
[1] = tested on: NA-uptake; assay: Measurement of noradrenalin re-uptake in rat brain synaptosomes (P2 fraction, hypothalamus); format: biochemical; conditions: synaptosomes from hypothalamus of male rats' brains
Procedure: Measurement of Noradrenalin Re-Uptake
In order to carry out these in vitro studies, synaptosomes were freshly isolated from rat brain areas. In each case, what is known as a “P2” fraction, which was prepared in accordance with Gray and Whittaker's directions (E. G. Gray and V. P. Whittaker (1962) J. Anat. 76, 79-88), was used. For the NA-uptake, uptake these vesicular particles were isolated from the hypothalamus of male rats' brains.
A detailed description of the method can be found in the literature (M. Ch. Frink, H.-H. Hennies, W. Englberger, M. Haurand and B. Wilffert (1996) Atzneim.-Forsch./Drug Res. 46 (III), 11, 1029-1036).

[2] = tested on: 5-HT-uptake; assay: Measurement of serotonin re-uptake in rat brain synaptosomes (P2 fraction, medulla+pons region); format: biochemical; conditions: synaptosomes from medulla+pons region of male rats' brains
Procedure: Measurement of Serotonin Re-Uptake
In order to carry out these in vitro studies, synaptosomes were freshly isolated from areas of rats' brains. In each case, what is known as a “P2” fraction, which was prepared in accordance with Gray and Whittaker's directions (E. G. Gray and V. P. Whittaker (1962) J. Anat. 76, 79-88), was used. For the 5HT-e, uptake these vesicular particles were isolated from the medulla+pons region of male rats' brains.
A detailed description of the method can be found in the literature (M. Ch. Frink, H.-H. Hennies, W. Englberger, M. Haurand and B. Wilffert (1996) Arzneim.-Forsch./Drug Res. 46 (III), 11, 1029-1036).

Compound | NA-uptake, 10 μM, % inhibition [1] | 5-HT-uptake, 10 μM, % inhibition [2]
Cc1onc(-c2ccccc2Cl)c1C(=O)NC1CCC(c2cccc(F)c2)(N(C)C)CC1.Cl (single isomer, unassigned) [Example 119, 3-(2-chlorophenyl)-5-methylisoxazole-4-carboxylic acid [4-dimethyl-amino-4-(3-fluorophenyl)cyclohexyl]amide hydrochloride, polar diastereoisomer] | 59% | 86%
Cc1onc(-c2ccccc2Cl)c1C(=O)NC1CCC(c2cccc(F)c2)(N(C)C)CC1.Cl (single isomer, unassigned) [Example 118, 3-(2-chlorophenyl)-5-methylisoxazole-4-carboxylic acid [4-dimethyl-amino-4-(3-fluorophenyl)cyclohexyl]amide hydrochloride, non-polar diastereoisomer] | – | 50%
